According to patent publication US12396995B2, “Substituted 4-aminoisoindoline-1,3-dione compounds and second active agents for combined use” (Celgene Corporation, priority 2019, dated 2025):

Legend:
[1] = test system: cell lines from hematological malignancies; assay: Cell Titer Glo proliferation, Compound 1 in combination with second active agents; assay type: cell-based; details: very sensitive cell lines such as JJN-3, SU-DHL2 or SU-DHL10; combined with Compound 1
Protocol: Cell Lines/Cells: Activated B-Cell (ABC) cell lines: TMD-8, SU-DHL-2, OCI-Ly10, RIVA, U2932; and Germinal Center B-cell (GCB) cell lines: SU-DHL10, Pfeiffer, WSU-DLCL2, SU-DHL4, DB; myeloma cell lines: H929, JJN3 and SK-MM1; acute myeloid leukemia cell line: HNT-34; acute lymphocytic leukemia cell line: Karpas-231; other lymphoma cell lines: Daudi, Karpas-299, HuT-102, L-428.
Alternatively, combination compound solutions were serially diluted from 5 μM starting concentration and serially diluted 6-fold for a 6-point dilution curve. […] Cells were added to each well and cultured for 3 days. […] For some other epigenetic agents (EPZ5676, C646, OICR-9429, ACY-241, GSK3484862, Compound C, UNC 0631, GSK3326595, LP99, A-196, CARM1 EZM2302) cells were cultured for 5 days due to their mechanism of action.
Plates were either made at a concentration of 10 μM or 1 μM diluted 3-fold for a 10-point dilution curve, with a final DMSO concentration of 0.2%. All cell line solutions were diluted to a concentration of 100,000 cells/mL and added to each well in a volume of 50 μL, with the exception of SU-DHL-6 solution, which was diluted to 25,000 cells/mL. At the end of the treatment period cells were lysed with Cell Titer Glo (CTG) reagents following manufacture recommendation. Luminescent signal was read using an Envision and data was normalized by DMSO for data analysis.
Data Analysis: The combination effect was analyzed by combining results from Highest Single Agent (HSA) and Bliss Independency methods. See, e.g., Foucquier J, Guedj M., Analysis of drug combinations: current methodological landscape. Pharmacol Res Perspect. 2015; 3(3):e00149. doi:10.1002/prp2.149.
Combined results of HSA and Bliss scores were used to define synergistic and additive effect of the combinations.

[2] = test system: DB DLBCL xenograft tumors; assay: DB (DLBCL) xenograft model, Compound 1 alone and with tazemetostat; assay type: in vivo, female SCID mice; details: single agent tazemetostat 200 mg/kg oral BID, three weeks
Protocol: (§1) Anti-tumor activity of Compound 1 alone and in combination with tazemetostat was studied in DB (DLBCL) xenograft model. Compound 1 (3, 10 or 30 mg/kg) was administered once daily for 5 consecutive days followed by 2 days off (5 D on/2 D off) and tazemetostat (200 mg/kg) was administered twice daily (BID).
(§2) Methods: Xenograft study was conducted with female SCID mice bearing DB DLBCL xenograft tumors. Female SCID mice were inoculated subcutaneously with DB cells in the flank region above the right hind leg. Following inoculation of animals, the tumors were allowed to grow to approximately 200 mm^3 prior to randomization. On day 33 following tumor cell inoculation, the mice bearing DB tumors ranging between 150 and 250 mm^3 were pooled together and randomized into various treatment groups. Compound 1 was formulated in 0.5% Methyl Cellulose, 0.25% Tween 80 and 50 mM Citrate pH 3 in water. Tazemetostat was formulated in CMC-Tween. Compound 1 (3, 10 or 30 mg/kg) was orally administered with three cycles of once daily for 5 consecutive days followed by 2 days off starting from day 33 after tumor cell inoculation. Tazemetostat (200 mg/kg) was orally administered twice day (BID) for three weeks. In combination group the animals received Compound 1 (3, 10 or 30 mg/kg, 5 D on/2 D off) and tazemetostat (200 mg/kg, BID) simultaneously for three weeks starting from day 33 after tumor cell inoculation. Tumors were measured twice a week using calipers and tumor volumes were calculated using the formula of W^2×L/2. Statistical analysis was performed using a one-way or 2-way analysis of variance (ANOVA). Synergy calculations were performed using fractional product method.

[3] = test system: WSU-DLCL2 DLBCL xenograft tumors; assay: WSU-DLCL2 (DLBCL) xenograft model, Compound 1 alone and with tazemetostat; assay type: in vivo, female SCID mice; details: single agent tazemetostat 200 mg/kg oral BID, three weeks
Protocol: as §1, with “WSU-DLCL2” for “DB”, “(1” for “(3, 10 or 30”
as §2, with “bearing WSU-DLCL2” for “bearing DB”, “with WSU-DLCL2” for “with DB”, “day 14” for “day 33”, “1 (1” for “1 (3, 10 or 30”, “Tazemetostat 200” for “Tazemetostat (200”, “1 (1 mg/kg/5” for “1 (3, 10 or 30 mg/kg, 5”

Structure (SMILES)	effect on proliferation of combination with Compound 1 (HSA and Bliss scores) [1]	also measured
COc1cc(Nc2ncc3c(n2)-c2ccc(Cl)cc2C(c2c(F)cccc2OC)=NC3)ccc1C(=O)O [alisertib, 4-((9-chloro-7-(2-fluoro-6-methoxyphenyl)-5H-benzo[c]pyrimido[4,5-e]azepin-2-yl)amino)-2-methoxybenzoic acid]	synergistic effects	
Cc1sc2c(c1C)C(c1ccc(Cl)cc1)=N[C@@H](CC(=O)Nc1ccc(O)cc1)c1nnc(C)n1-2 [birabresib, (S)-2-(4-(4-chlorophenyl)-2,3,9-trimethyl-6H-thieno[3,2-f][1,2,4]triazolo[4,3-a][1,4]diazepin-6-yl)-N-(4-hydroxyphenyl)acetamide]	synergistic effects	
CO[C@H]1C[C@@H]2CC[C@@H](C)[C@@](O)(O2)C(=O)C(=O)N2CCCC[C@H]2C(=O)O[C@H]([C@H](C)C[C@@H]2CC[C@@H](OCCO)[C@H](OC)C2)CC(=O)[C@H](C)/C=C(\C)[C@@H](O)[C@@H](OC)C(=O)[C@H](C)C[C@H](C)/C=C/C=C/C=C/1C [everolimus, 40-O-(2-hydroxyethyl)-rapamycin]	synergistic effects	
Cc1cnc(Nc2ccc(OCCN3CCCC3)cc2)nc1Nc1cccc(S(=O)(=O)NC(C)(C)C)c1 [fedratinib, N-tert-butyl-3-[(5-methyl-2-{4-[2-(pyrrolidin-1-yl)ethoxy]anilino}pyrimidin-4-yl)amino]benzenesulfonamide]	synergistic effects	
Cc1[nH]c2ccccc2c1CCNCc1ccc(/C=C/C(=O)NO)cc1 [panobinostat, (2E)-N-hydroxy-3-[4-({[2-(2-methyl-1H-indol-3-yl)ethyl]amino}methyl)phenyl]acrylamide]	synergistic effects	
CCN(c1cc(-c2ccc(CN3CCOCC3)cc2)cc(C(=O)NCc2c(C)cc(C)[nH]c2=O)c1C)C1CCOCC1 [tazemetostat, N-[(1,2-dihydro-4,6-dimethyl-2-oxo-3-pyridinyl)methyl]-5-[ethyl(tetrahydro-2H-pyran-4-yl)amino]-4-methyl-4′-(4-morpholinylmethyl)-[1,1′-biphenyl]-3-carboxamide, reference compound]		inhibition of tumor growth (TVR) [2]: 64.5%; inhibition of tumor growth (TVR) ([2]; listed as Tazemetostat): −45.9%; inhibition of tumor growth [3]: −50.5%
CC[C@]1(O)C[C@H]2CN(CCc3c([nH]c4ccccc34)[C@@](C(=O)OC)(c3cc4c(cc3OC)N(C=O)[C@H]3[C@@](O)(C(=O)OC)[C@H](OC(C)=O)[C@]5(CC)C=CCN6CC[C@]43[C@@H]65)C2)C1 [vincristine]	synergistic effects	
